Source: US20100331185A1, “Herbicidal Compositions of Lithium Glyphosate and Adjuvants” (COGNIS IP […], priority 2007, published 2010)
Read-outs that look alike come from different tables or passages of the source.

Tests used:
[1] = Experimental: 35.2 g of glyphosate tech (96%, 0.208 mol) was mixed with 20 g water in a flask. 8.4 g of LiOH monohydrate was added to this mixture with good mixing.
[2] = acid form, in water at 25° C.; cited from earlier work

SMILES | product pH (1%) [1] | Li glyphosate Solubility ([1]; solvent: Agnique KE 3658) [mg/mL] | Li glyphosate Solubility ([1]; solvent: Agnique ME 610) [mg/mL] | Li glyphosate Solubility ([1]; solvent: Exxsol D-110) [mg/mL] | Li glyphosate Solubility ([1]; solvent: N-Methyl pyrrolidone) [mg/mL] | Li glyphosate Solubility ([1]; solvent: Water) [mg/mL] | solubility in water [2] [% by weight]
O=C(O)CNCP(=O)([O-])O.[Li+] [Li glyphosate, lithium glyphosate] | 4.98 | <100 | <50 | <50 | <150 | <200 | –
O=C(O)CNCP(=O)(O)O [glyphosate] | – | – | – | – | – | – | 0.16
